Target: Human cGAS amino acids 155-522 (Homo sapiens (Human), UniProt Q8N884)
Experiment: cGAS biochemical activity assay (ATP remaining, Kinase-Glo Max luminescence)
Settings: human cGAS 155-522, ATP remaining (Kinase-Glo Max); read-out: cGAS IC50

Human cGAS amino acids 155-522, sequence (Q8N884 157-522): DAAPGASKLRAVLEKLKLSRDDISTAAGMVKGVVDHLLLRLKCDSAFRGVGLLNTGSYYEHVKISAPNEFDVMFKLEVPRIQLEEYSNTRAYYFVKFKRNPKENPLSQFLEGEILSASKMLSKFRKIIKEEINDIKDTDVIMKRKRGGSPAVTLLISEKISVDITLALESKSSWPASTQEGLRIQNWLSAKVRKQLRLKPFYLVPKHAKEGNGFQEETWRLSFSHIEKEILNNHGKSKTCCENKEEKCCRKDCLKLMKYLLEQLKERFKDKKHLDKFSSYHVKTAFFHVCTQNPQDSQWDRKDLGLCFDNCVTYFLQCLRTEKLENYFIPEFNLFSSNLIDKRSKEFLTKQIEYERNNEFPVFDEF

IC50 | Structure (SMILES)
20 to 250 µM | CC(=O)NCCc1c(C)[nH]c2c(-c3ccccc3)c(C(F)(F)F)nn2c1=O [Compound B1013, N-(2-(5-methyl-7-oxo-3-phenyl-2-(trifluoromethyl)-4,7-dihydropyrazolo[1,5-a]pyrimidin-6-yl)ethyl)acetamide]
20 to 250 µM | Cc1[nH]c2c(-c3ccccc3)c(C(F)(F)F)nn2c(=O)c1C(=O)Nc1cccc(N(S(C)(=O)=O)S(C)(=O)=O)c1 [Compound A1046, 5-methyl-N-(3-(N-(methylsulfonyl)methylsulfonamido)phenyl)-7-oxo-3-phenyl-2-(trifluoromethyl)-4,7-dihydropyrazolo[1,5-a]pyrimidine-6-carboxamide]
20 to 250 µM | Cc1[nH]c2c(-c3ccccc3)c(C(F)(F)F)nn2c(=O)c1C(=O)Nc1ccccc1OC(F)(F)F [Compound A1049, 5-methyl-7-oxo-3-phenyl-N-(2-(trifluoromethoxy)phenyl)-2-(trifluoromethyl)-4,7-dihydropyrazolo[1,5-a]pyrimidine-6-carboxamide]
> 250 µM | COc1ccc(CN)c2oc(-c3c(C)[nH]c4c(-c5ccccc5)c(C(F)(F)F)nn4c3=O)nc12 [Compound C1191, 6-(7-(aminomethyl)-4-methoxybenzo[d]oxazol-2-yl)-5-methyl-3-phenyl-2-(trifluoromethyl)pyrazolo[1,5-a]pyrimidin-7(4H)-one]
20 to 250 µM | CC(=O)N1CCC(c2nnc(-c3c(C)[nH]c4c(-c5ccccc5)c(C(F)(F)F)nn4c3=O)o2)CC1 [Compound D1054, 6-(5-(1-acetylpiperidin-4-yl)-1,3,4-oxadiazol-2-yl)-5-methyl-3-phenyl-2-(trifluoromethyl)pyrazolo[1,5-a]pyrimidin-7(4H)-one]
20 to 250 µM | Cc1[nH]c2c(-c3ccccc3)c(C(F)(F)F)nn2c(=O)c1-c1nnc(C2CCCN(C(=O)OC(C)(C)C)C2)o1 (centres unmarked) [Compound D1031, tert-butyl 3-(5-(5-methyl-7-oxo-3-phenyl-2-(trifluoromethyl)-4,7-dihydropyrazolo[1,5-a]pyrimidin-6-yl)-1,3,4-oxadiazol-2-yl)piperidine-1-carboxylate]
20 to 250 µM | Cc1[nH]c2c(-c3ccccc3)c(C(F)(F)F)nn2c(=O)c1-c1nnc(C2CCN(S(C)(=O)=O)CC2)o1 [Compound D1053, 5-methyl-6-(5-(1-(methylsulfonyl)piperidin-4-yl)-1,3,4-oxadiazol-2-yl)-3-phenyl-2-(trifluoromethyl)pyrazolo[1,5-a]pyrimidin-7(4H)-one]
20 to 250 µM | COc1cccc2c1nc(-c1c(C)[nH]c3c(-c4ccccc4)c(C(F)(F)F)nn3c1=O)n2C [Compound C1087, 6-(4-methoxy-1-methyl-1H-benzo[d]imidazol-2-yl)-5-methyl-3-phenyl-2-(trifluoromethyl)pyrazolo[1,5-a]pyrimidin-7(4H)-one]
20 to 250 µM | Cc1[nH]c2c(-c3ccccc3)c(C(F)(F)F)nn2c(=O)c1C(=O)NC1CCN(C)CC1 [Compound A1026, 5-methyl-N-(1-methylpiperidin-4-yl)-7-oxo-3-phenyl-2-(trifluoromethyl)-4,7-dihydropyrazolo[1,5-a]pyrimidine-6-carboxamide]
20 to 250 µM | Cc1[nH]c2c(-c3ccccc3)c(C(F)(F)F)nn2c(=O)c1C(N)=O [Compound A1140, 5-methyl-7-oxo-3-phenyl-2-(trifluoromethyl)-4,7-dihydropyrazolo[1,5-a]pyrimidine-6-carboxamide]
20 to 250 µM | COCCn1c(-c2c(C)[nH]c3c(-c4ccccc4)c(C(F)(F)F)nn3c2=O)nc2c(OC)cccc21 [Compound C1200, 6-(4-methoxy-1-(2-methoxyethyl)-1H-benzo[d]imidazol-2-yl)-5-methyl-3-phenyl-2-(trifluoromethyl)pyrazolo[1,5-a]pyrimidin-7(4H)-one]
20 to 250 µM | Cc1[nH]c2c(-c3ccccc3)c(C(F)(F)F)nn2c(=O)c1-c1nnc(C(C)C)o1 [Compound D1005, 6-(5-isopropyl-1,3,4-oxadiazol-2-yl)-5-methyl-3-phenyl-2-(trifluoromethyl)pyrazolo[1,5-a]pyrimidin-7(4H)-one]
20 to 250 µM | COCCN(C)C(=O)c1[nH]c2c(-c3ccccc3)c(C(F)(F)F)nn2c(=O)c1-c1nc2c(OC)cccc2o1 [Compound C1179, 6-(4-methoxybenzo[d]oxazol-2-yl)-N-(2-methoxyethyl)-N-methyl-7-oxo-3-phenyl-2-(trifluoromethyl)-4,7-dihydropyrazolo[1,5-a]pyrimidine-5-carboxamide]
20 to 250 µM | Cc1[nH]c2c(-c3ccccc3)c(C(F)(F)F)nn2c(=O)c1CC(=O)Nc1ccccc1 [Compound B1005]
20 to 250 µM | Cc1[nH]c2c(-c3ccccc3)c(C(F)(F)F)nn2c(=O)c1-c1nnc(N2CCS(=O)(=O)CC2)o1 [Compound D1068, 6-(5-(1,1-dioxidothiomorpholino)-1,3,4-oxadiazol-2-yl)-5-methyl-3-phenyl-2-(trifluoromethyl)pyrazolo[1,5-a]pyrimidin-7(4H)-one]
20 to 250 µM | COc1cccn2nc(-c3c(C)[nH]c4c(-c5ccccc5)c(C(F)(F)F)nn4c3=O)nc12 [Compound C1110, 6-(8-methoxy-[1,2,4]triazolo[1,5-a]pyridin-2-yl)-5-methyl-3-phenyl-2-(trifluoromethyl)pyrazolo[1,5-a]pyrimidin-7(4H)-one]
20 to 250 µM | COc1cccc2oc(-c3c(C)[nH]c4c(-c5ccc(C)cc5)c(C(F)(F)F)nn4c3=O)nc12 [Compound C1171]
20 to 250 µM | COc1cccc2oc(-c3c(C(=O)N[C@H](CO)C(C)C)[nH]c4c(-c5ccccc5)c(C(F)(F)F)nn4c3=O)nc12 [Compound C1208, (S)-N-(1-hydroxy-3-methylbutan-2-yl)-6-(4-methoxybenzo[d]oxazol-2-yl)-7-oxo-3-phenyl-2-(trifluoromethyl)-4,7-dihydropyrazolo[1,5-a]pyrimidine-5-carboxamide]
20 to 250 µM | Cc1[nH]c2c(-c3ccccc3)c(C(F)(F)F)nn2c(=O)c1CCNC(=O)c1ccccc1 [Compound B1014, N-(2-(5-methyl-7-oxo-3-phenyl-2-(trifluoromethyl)-4,7-dihydropyrazolo[1,5-a]pyrimidin-6-yl)ethyl)benzamide]
< 20 µM | COc1cccc2oc(-c3c(C)[nH]c4c(-c5ccccc5)c(C(C)=O)nn4c3=O)nc12 [Compound C1210, 2-acetyl-6-(4-methoxybenzo[d]oxazol-2-yl)-5-methyl-3-phenylpyrazolo[1,5-a]pyrimidin-7(4H)-one]
20 to 250 µM | Cc1[nH]c2c(-c3ccccc3)c(C(F)(F)F)nn2c(=O)c1C(=O)Nc1nc[nH]n1 [Compound A1040, 5-methyl-7-oxo-3-phenyl-N-(1H-1,2,4-triazol-3-yl)-2-(trifluoromethyl)-4,7-dihydropyrazolo[1,5-a]pyrimidine-6-carboxamide]
20 to 250 µM | CC(=O)Nc1cccc(NC(=O)c2c(C)[nH]c3c(-c4ccccc4)c(C(F)(F)F)nn3c2=O)c1 [Compound A1039, N-(3-acetamidophenyl)-5-methyl-7-oxo-3-phenyl-2-(trifluoromethyl)-4,7-dihydropyrazolo[1,5-a]pyrimidine-6-carboxamide]
20 to 250 µM | Cc1[nH]c2c(-c3ccccc3)c(C(F)(F)F)nn2c(=O)c1C(=O)Nc1ccccc1NS(=O)(=O)C1CCCCC1 [Compound A1119, N-(2-(cyclohexanesulfonamido)phenyl)-5-methyl-7-oxo-3-phenyl-2-(trifluoromethyl)-4,7-dihydropyrazolo[1,5-a]pyrimidine-6-carboxamide]

— patent US10738056B2 (Aduro BioTech, Inc., priority 2017, dated 2020)
